Like-named read-outs stand apart in the source and are kept apart here.
Experiments:
[1] = biological target: T1, BRAF (Homo sapiens, UniProt P15056); test: BRAF kinase activity assay (ADP-Glo); type: biochemical
T1 construct: GST; purchased Millipore Sigma B4062-10UG
Description: (§1) Compound preparation: solid samples of each substances in 1dram vials were suspended in DMSO (Fisher Scientific) at a stock concentration of 20 mM. Stocks were kept at −20° C. and protected from light. If solubility of the compound at 20 mM appeared to be an issue, the initial concentration of the DMSO stock was changed to 10 mM or 5 mM.
(§2) In vitro enzymatic reactions were used for evaluating compounds intrinsic activity against BRAF, CRAF and ARAF. For BRAF and CRAF, 0.375 nM of purified GST-tagged kinases (cat #B4062-10UG and cat #R1656-10UG respectively from Millipore Sigma) were incubated with 75 nM of kinase-dead MEK1 substrate (cat #40075; BPS Bioscience) in the presence of 10 μM of Ultrapure ATP (cat #V9102; Promega; part V915A) with and without the test compound in a buffer containing 50 mM HEPES pH 7.5, 10 mM MgCl2, 1 mM EDTA, 0.01% Brij-35 and 2 mM DTT. Separate reactions were performed with the MEK1 substrate and ATP as a blank control. ARAF, kinase reactions were rigorously the same with the exception that kinase concentration was raised to 3.75 nM (cat #1768-0000-1; Reaction Biology).
(§3) For compound treatment, 5 μL/well of test substance solution are placed in a 384-well proxyplate (Perkin Elmer) and mixed with 2× concentrated kinase reactions. The dilution series is selected so that nine concentrations cover a range from 100 nM to 0.01 nM. […] The final concentration of DMSO in the assay is set at 0.05%.
(§4) BRAF and CRAF kinase reactions were carried out for a total of 2 hours at 30° C. and then stopped by ½ dilution in ADP-Glo Reagent (cat #V9102; Promega; part V912C). Reactions were then incubated for 1 h at room temperature before addition of one volume of Kinase Detection Reagent (cat #V9102; Promega; part V917A). Plates were then equilibrated at room temperature for 30 minutes before detection of luminescence on a Synergy Neo2 plate reader (Biotek). The effect of each compound dilution on BRAF and CRAF kinase activity was expressed as % inhibition and calculated as follows. First, the internal 100% inhibition control (average of luminescence in kinase reactions comprising kinase dead MEK1 substrate alone) was subtracted from each data point. The average of DMSO (vehicle) controls (set as 0% inhibition) was established and used to calculate % inhibition:
(§5) IC50 values were obtained by plotting the kinase inhibition values and fitting the dose-activity curves using a log(agonist) versus response−variable slope (four parameters) function using either GraphPadPrism (V7.0) or Dotmatics Screening Ultra platform. Standards included in the ARAF kinase assay were Belvarafenib (MedChem Express cat #HY-109080; CAS #1446113-23-0), LXH254 (MedChem Express cat #HY-112089; CAS #1800398-38-2) and BGB283 (cat #HY-18957; CAS #1446090-79-4).

[2] = biological target: CRAF (Homo sapiens, UniProt P04049); test: CRAF kinase activity assay (ADP-Glo); type: biochemical; details: Table 3
CRAF, sequence (P04049 whole entry): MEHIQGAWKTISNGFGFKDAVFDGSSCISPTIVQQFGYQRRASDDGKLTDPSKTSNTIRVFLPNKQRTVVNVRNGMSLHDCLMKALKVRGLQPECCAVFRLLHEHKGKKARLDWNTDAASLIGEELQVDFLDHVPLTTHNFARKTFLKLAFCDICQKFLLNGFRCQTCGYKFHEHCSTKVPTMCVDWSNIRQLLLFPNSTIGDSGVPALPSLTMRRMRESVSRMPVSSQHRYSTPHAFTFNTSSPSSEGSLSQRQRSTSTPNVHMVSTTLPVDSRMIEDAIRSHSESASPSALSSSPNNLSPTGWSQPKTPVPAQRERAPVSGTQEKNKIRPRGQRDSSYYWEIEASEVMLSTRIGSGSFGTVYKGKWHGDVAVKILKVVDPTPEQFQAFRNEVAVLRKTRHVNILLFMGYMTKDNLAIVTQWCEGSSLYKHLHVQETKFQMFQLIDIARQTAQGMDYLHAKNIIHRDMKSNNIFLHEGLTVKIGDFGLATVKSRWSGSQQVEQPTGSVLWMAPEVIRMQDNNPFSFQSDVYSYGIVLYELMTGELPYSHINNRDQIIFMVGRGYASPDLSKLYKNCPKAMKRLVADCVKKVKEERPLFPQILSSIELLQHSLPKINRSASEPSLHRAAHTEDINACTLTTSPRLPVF
Description: as §1, §2, §3, §4, §5

[3] = tested on: HCT116 pERK; test: Phospho-ERK inhibition, AlphaLISA SureFire Ultra p-ERK 1/2; type: cell-based, human; details: for IC50: 1 h treatment; for HCT116 (Ymin %): lowest value of the pERK IC50 curve
Description: (§6) All cancer cell lines (A375, A101D, A2058, RKO, HT29 SK-MEL 30, IPC298, HepG2, HCT-116, Lovo, SW620, SW480, NCI-H358, NCI-H2122, Calu-6, NCIH2087, NCIH1755, NCIH1666 and Mewo) were obtained from ATCC and cultured in RPMI-1640 medium (Gibco) supplemented with 5% heat inactivated fetal bovine serum (FBS, Wisent) at 37° C. under 5% CO2. Cells were maintained in T175 flasks (Greiner). They were passaged by removing the culture medium, washing once in 10 mL of room temperature Phosphate Buffered Saline (PBS; Wisent) and incubating at 37° C. with 2 mL of 0.05% Trypsin (Thermo-Fisher). Trypsin was then inactivated by adding complete growth medium and the cells were then replated in a T175 culture dish at the appropriate dilution. All cell lines were routinely tested for mycoplasma contamination. Tissue type and mutational status of each cell line can be found in Table B.
(§7) AlphaLISA® SureFire® Ultra™ p-ERK ½ (Thr202/Tyr204) analysis was conducted on cells plated in 100 μL of complete RPMI-1640 growth medium in 96-well flat-bottomed transparent dishes (Costar) at a density indicated in Table C. Cells were maintained overnight at 37° C. under 5% CO2 before treatment with compounds' dilution series for one hour. The cell density in cells/cm^2 corresponds to cell number divided by the area of one well of a 96-well plate ([…]).
(§8) In a dilution series 100 μL/well of test substance dilution prepared in complete RPMI-1640 growth media was added to the cells. The dilution series is selected so that ten concentrations cover a range from 30 μM or 10 μM to 0.33 nM. If necessary, the initial concentration of 10 μM is increased to 100 μM or lowered to 1 μM (as in the case of A375 and NCIH1666 cells, which are generally more sensitive to the compounds) and further dilution is carried out accordingly. The final concentration of DMSO in the assay is set at 0.5%.
(§9) After treatment, media was removed, and cells were lysed in 50 μL of 1× AlphaScreen Ultra Lysis Buffer (Perkin Elmer). The AlphaLISA® SureFire® Ultra™ p-ERK ½ (Thr202/Tyr2O4) (PerkinElmer) reactions were performed with 5 μL of cell lysate according to the manufacturer's specifications in 384-well proxyplates (Perkin Elmer) followed by overnight incubation of the reactions at room temperature in a humidified chamber. After completion of the reactions, the signals were recorded on an EnVision plate reader (Perkin Elmer) using built in AlphaLISA® settings.
(§10) The effect of each compound dilution on the pERK signal was expressed in % inhibition and calculated as follows. An internal 100% inhibition control (1 μM trametinib, cat. No. HY-10999; MedChem Express; CAS No. 871700-17-3) was included in each plate and used as a measure of pERK background. First, the value obtained for trametinib was subtracted from each data point. The average of DMSO (vehicle) controls (set as 0% inhibition) was established and used to calculate % inhibition:
(§11) The ability of each compound to inhibit pERK signal was expressed as an IC50 value obtained by plotting the inhibition values for each data point of a dilution series and fitting the obtained curves using a log(agonist) versus response−variable slope (four parameters) function using GraphPadPrism (V7.0).
(§12) When present, paradoxical pERK induction is inferred from the negative % inhibition values observed in the pERK IC50 curves of a compound.

[4] = tested on: SW480 pERK; test: as above; type: cell-based, human; details: for IC50: 1 h treatment; for SW480 (Ymin %): lowest value of the pERK IC50 curve
Description: as §6, §7, §8, §9, §10, §11, §12

[5] = Table 2, read-out: SW480 PERK IC50 (UM)
[6] = Table 3, read-out: SW480 PERK IC50

T1 sequence (P15056 whole entry): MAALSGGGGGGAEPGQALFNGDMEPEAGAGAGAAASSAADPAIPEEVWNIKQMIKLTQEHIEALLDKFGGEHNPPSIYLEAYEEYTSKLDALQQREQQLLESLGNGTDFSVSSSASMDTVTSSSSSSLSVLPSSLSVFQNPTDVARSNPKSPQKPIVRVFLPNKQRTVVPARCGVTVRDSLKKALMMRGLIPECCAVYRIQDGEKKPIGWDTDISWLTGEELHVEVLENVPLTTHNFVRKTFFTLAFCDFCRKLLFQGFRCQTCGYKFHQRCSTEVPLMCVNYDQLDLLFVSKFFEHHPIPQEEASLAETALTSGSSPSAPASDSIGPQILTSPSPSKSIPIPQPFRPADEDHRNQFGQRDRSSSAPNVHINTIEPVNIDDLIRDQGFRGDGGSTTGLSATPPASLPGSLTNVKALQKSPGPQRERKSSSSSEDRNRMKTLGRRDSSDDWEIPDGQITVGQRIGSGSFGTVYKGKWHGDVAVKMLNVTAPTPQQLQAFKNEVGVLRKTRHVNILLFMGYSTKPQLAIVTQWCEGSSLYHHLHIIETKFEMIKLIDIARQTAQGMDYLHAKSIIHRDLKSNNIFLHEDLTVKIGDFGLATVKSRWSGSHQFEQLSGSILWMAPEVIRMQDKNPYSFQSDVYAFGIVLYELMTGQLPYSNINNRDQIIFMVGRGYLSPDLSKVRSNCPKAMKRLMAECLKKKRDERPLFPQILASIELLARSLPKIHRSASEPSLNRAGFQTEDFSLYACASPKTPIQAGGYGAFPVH

IC50 ([1]; Table 3) [nM]	IC50 [2] [nM]	IC50 ([3]; Table 3) [nM]	SMILES	HCT116 (Ymin %) ([3]; Table 3) [%]	other results
1 to 10	> 50	< 500	COc1ccc(S(=O)(=O)Nc2ccc(F)c(Nc3ncnc4cnc(-n5cnc6ccccc65)nc34)c2F)c(C)c1F [Example 116]	−1	–
1 to 10	10 to 50	< 500	COC1CCN(c2cccc3c2ncn3-c2ncc3ncnc(Nc4c(F)ccc(NS(=O)(=O)c5cccc(Cl)c5Cl)c4F)c3n2)CC1 [Example 131]	−4	–
1 to 10	10 to 50	< 500	O=S(=O)(Nc1ccc(F)c(Nc2ncnc3cnc(-n4cnc5c(N6CC(CCO)C6)cccc54)nc23)c1F)c1cccc(Cl)c1Cl [Example 147]	−9	–
1 to 10	10 to 50	< 500	CCC1(O)CCN(c2cccc3c2ncn3-c2ncc3ncnc(Nc4c(F)ccc(NS(=O)(=O)c5cccc6c5OC(F)(F)O6)c4F)c3n2)CC1 [Example 151]	10	–
> 10	10 to 50	< 500	CCc1ccccc1S(=O)(=O)Nc1ccc(F)c(Nc2ncnc3cnc(-n4cnc5c(N6CCC(O)(CC)CC6)cccc54)nc23)c1F [Example 149]	4	–
< 1	< 10	–	Cc1c(F)cccc1S(=O)(=O)Nc1ccc(F)c(Nc2ncnc3cnc(-n4cc(S(=O)(=O)N5CCN(C)CC5)c5ccccc54)nc23)c1F [Example 96]	–	IC50 ([3]; Homo sapiens, HCT-116, Table 3): < 500 nM
> 10	10 to 50	1000 to 10000	COc1ccc(S(=O)(=O)Nc2ccc(F)c(Nc3ncnc4cnc(-n5nnc6ccccc65)nc34)c2F)c(C)c1Cl [Example 117]	−1	–
1 to 10	10 to 50	< 500	CCS(=O)(=O)c1cn(-c2ncc3ncnc(Nc4c(F)ccc(NS(=O)(=O)c5cccc(Cl)c5Cl)c4F)c3n2)c2ccccc12 [Example 141]	−3	–
1 to 10	10 to 50	< 500	O=S(=O)(CC1CCOCC1)c1cn(-c2ncc3ncnc(Nc4c(F)ccc(NS(=O)(=O)c5cccc(Cl)c5Cl)c4F)c3n2)c2ccccc12 [Example 144]	−9	–
1 to 10	< 10	–	N#CC1(c2cccc3c2nnn3-c2ncc3ncnc(Nc4c(F)ccc(NS(=O)(=O)c5cccc(Cl)c5Cl)c4F)c3n2)CC1 [Example 135]	–	IC50 ([3]; Homo sapiens, HCT-116, Table 3): 500 to 1000 nM
–	10 to 50	1000 to 10000	Cc1c(F)cccc1S(=O)(=O)Nc1ccc(F)c(Nc2ncnc3cnc(-n4nc(C(=O)N5CCC(O)CC5)c5ccccc54)nc23)c1F [Example 108]	−7.0	–
–	–	–	CSc1ncc2ncnc(Nc3c(F)ccc(NS(=O)(=O)c4cccc(F)c4C)c3F)c2n1 [Example 90]	–	IC50 ([1]; Table 2): 1 to 10 nM; IC50 ([3]; Homo sapiens, HCT-116, Table 2): 1000 to 10000 nM
–	–	–	COc1ccc(S(=O)(=O)Nc2ccc(F)c(Nc3ncnc4cnc(SC)nc34)c2F)c(C)c1Cl [Example 92]	–	IC50 ([1]; Table 2): 1 to 10 nM; IC50 ([3]; Table 2): 1000 to 10000 nM; HCT116 (Ymin %) ([3]; Table 2): −12%
–	–	–	COc1ccc(S(=O)(=O)Nc2ccc(F)c(Nc3ncnc4cnc(SC)nc34)c2F)c(C(F)(F)F)c1 [Example 14]	–	IC50 ([3]; Table 2): 1000 to 10000 nM; HCT116 (Ymin %) ([3]; Table 2): −5%; IC50 [4, 5]: 1000 to 10000 nM; SW480 (Ymin %) ([4]; Table 2): −6%
–	–	1000 to 10000	O=S(=O)(Nc1ccc(F)c(Nc2ncnc3cnc(-n4cnc5ccccc54)nc23)c1F)N1CCC(CCl)C1 (centres unmarked) [Example 75]	−10	IC50 [4, 6]: 1000 to 10000 nM; SW480 (Ymin %) ([4]; Table 3): −6%
–	–	–	COc1ccc(S(=O)(=O)Nc2ccc(F)c(Nc3ncnc4cnc(SC)nc34)c2F)c(C)c1 [Example 12]	–	IC50 ([3]; Table 2): 1000 to 10000 nM; HCT116 (Ymin %) ([3]; Table 2): −7%; IC50 [4, 5]: 1000 to 10000 nM; SW480 (Ymin %) ([4]; Table 2): −10%
–	–	10000 to 30000	COc1ccc(S(=O)(=O)Nc2ccc(F)c(Nc3ncnc4cnc(Oc5cccc(N)c5)nc34)c2F)cc1 [Example 54]	−7	IC50 [4, 6]: 10000 to 30000 nM; SW480 (Ymin %) ([4]; Table 3): 8%

Source: patent publication US20240239801A1, “PYRIMIDO[5,4,D]PYRIMIDINE COMPOUNDS, COMPOSITIONS COMPRISING THEM AND USES THEREOF” (Université de Montréal, priority 2021, published 2024)
